In PubChem BioAssay (NCI):
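Cultured in 96-well plates, cells were exposed to test compound for 48 hours across five concentrations. Abbreviation: GI50, concentration required for 50% inhibition of growth. TGI denotes the concentration required for complete inhibition of growth.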

How the values were obtained:
Assay in all cases: NCI-60 cell line screen, 48 h
[1] = test system: HOP-18 NSCLC
[2] = test system: KM20L2 colon
[3] = test system: M19-MEL melanoma
[4] = test system: DU-145 prostate
[5] = test system: HS 578T breast
[6] = test system: MDA-MB-435
[7] = test system: NCI/ADR-RES ovarian
[8] = test system: T-47D breast
[9] = test system: SNB-78 CNS

Row | Compound | TGI [1] [µM] | TGI [2] [µM] | TGI [3] [µM] | GI50 [4] [µM] | TGI [4] [µM] | GI50 [5] [µM] | TGI [5] [µM] | GI50 [6] [µM] | TGI [6] [µM] | GI50 [7] [µM] | GI50 [8] [µM] | TGI [8] [µM] | TGI [9] [µM] | TGI [7] [µM]
1 | COc1ccc(CN2CCC/C=C/CC(Cl)(Cl)C2=O)cc1 | > 100 | > 100 | 95.2 | – | – | – | – | – | – | – | – | – | – | –
2 | C=C1C(=O)O[C@H]2[C@H]1CC/C(C=Nc1c(N)cc(C(F)(F)F)cc1Br)=C\CC[C@@]1(C)O[C@@H]21 | – | – | – | 1.48 | 2.95 | 2.08 | 9.5 | 1.86 | 5.74 | 2.31 | 1.45 | 3.42 | – | –
3 | O=C(/C=C/c1ccccc1)CC(=O)CCC(=O)Nc1ccc(Cl)cc1 | > 100 | > 100 | > 100 | – | – | – | – | – | – | – | – | – | > 100 | –
4 | Nc1ccc(/C=C/C(=O)NCc2cc3cc(-c4ccc(C(=O)N5CCC(F)(F)CC5)cc4)cc(-c4ccc(F)cc4)c3o2)cn1 | – | – | – | 4.15 | > 100 | > 100 | > 100 | 0.752 | > 100 | 4.91 | 0.784 | > 100 | – | > 100
5 | CC(=O)/C(=C/c1ccccc1F)C(=O)c1ccccc1 | – | – | – | – | > 100 | – | > 100 | – | > 100 | – | – | > 100 | – | > 100
6 | Oc1ccccc1-c1nn(CNc2ccccc2Cl)c(=S)o1 | – | – | – | – | – | > 100 | > 100 | > 100 | > 100 | 18.2 | 13.5 | 74.9 | – | 72.7
7 | COC(=O)C1(C)Cc2cc(OC(C)=O)c(OC(C)=O)cc2N1 (stereo unspecified) | – | – | – | 14.1 | > 58.9 | – | > 24.1 | 6.29 | 61.5 | 16 | 4.55 | > 37.8 | – | > 75.5
8 | CNC(=O)c1nn(C)c2c1C(C)(C)Cc1cnc(Nc3ccc(N4CCN(C)CC4)cc3)nc1-2 | – | – | – | 0.995 | > 10 | 0.369 | > 2.37 | 0.693 | > 10 | 3 | 0.261 | > 5.55 | – | > 10
9 | C[C@H]1CCCC(O)C(O)[C@@H]2C[C@H](O[Si](C)(C)C(C)(C)C)C[C@H]2[C@H](O[Si](C)(C)C(C)(C)C)C(O)C(O)C(=O)O1 (stereo partly specified) | – | – | – | 28.3 | > 100 | – | – | > 100 | > 100 | 27.2 | 28.4 | > 100 | – | > 100
10 | N#CNC(N)=Nc1ccc(Cl)cc1 | – | – | – | – | > 100 | – | > 100 | – | > 100 | – | – | > 100 | – | > 100
11 | CCNC(=O)c1noc(-c2cc(C(C)C)c(O)cc2O)c1-c1ccc(CN2CCOCC2)cc1 | – | – | – | < 0.0222 | 21.1 | 2.47 | 56.9 | < 0.0167 | 19.5 | 0.313 | 0.0382 | 47.8 | – | 44.1
12 | CCOC(=O)/C(C#N)=C\C=C(/Cl)c1ccc(Cl)cc1 | – | – | – | 12.9 | 25.5 | 22.7 | 60.7 | 10.5 | 32.9 | 22 | 2.83 | 10.7 | – | 44.6
13 | CCC(=O)Nc1nc2c(ncn2C2OC(COC(=O)CC)C(OC(=O)CC)C2OC(=O)CC)c(=O)[nH]1 (stereo unspecified) | – | > 100 | > 100 | – | – | – | – | – | – | – | – | – | > 100 | –
14 | Cc1ccc(NC(=O)c2cc(S(=O)(=O)N3C(=O)NC(=O)NS3(=O)=O)c(S)cc2Cl)cc1 | – | – | – | 23.2 | 64 | 29.4 | 95.8 | 17.1 | 35.7 | > 100 | 21.4 | 81.3 | – | > 100
15 | CC(C)(C)OC(=O)NCCCCCCCn1c2c(c3ccccc3c1=O)C(=O)c1ccccc1-2 | – | – | – | 31.8 | > 100 | 17.4 | 49.5 | 82 | > 100 | 26.1 | 16.4 | 78.1 | – | > 100
16 | CCCCCCCCCCCCCCCC[N+]1(C)CCOCC1 | – | – | – | 2.41 | 6.79 | 2.23 | 8.44 | – | – | 18.1 | 4.68 | 25.2 | – | 44.9
17 | COc1ccc(OC)c(Cn2cc3c(c2-c2ccccc2)CCc2cnoc2-3)c1 | – | – | – | 17.4 | > 100 | 4.95 | > 100 | 2.18 | 9.11 | 2.48 | 18.1 | > 100 | – | 7.55
18 | COc1cc(NCCCCCCCNC(C)C)c2nccc(C)c2c1 | – | – | – | 17 | 31.4 | 17.4 | 39.7 | 6.95 | 21.2 | 14.3 | 5.44 | 19.8 | – | 28.4
19 | O=C(N[C@@H](C[Se][Se]C[C@H](NC(=O)c1ccc(Br)cc1F)C(=O)O)C(=O)O)c1ccc(Br)cc1F | – | – | – | > 100 | > 100 | > 100 | > 100 | > 100 | > 100 | > 100 | > 100 | > 100 | – | > 100
20 | C=C1C[C@@H]2CC[C@@]34C[C@H]5O[C@H]6[C@@H](O3)[C@H]3O[C@H](CC[C@@H]3O[C@H]6[C@@H]5O4)CC(=O)C[C@@H]3[C@@H](OC)[C@@H](C[C@H](O)CN)O[C@H]3C[C@H]3O[C@@H](CC[C@@H]1O2)C[C@@H](C)C3=C | – | – | – | < 0.01 | > 100 | < 0.01 | > 100 | < 0.01 | < 0.01 | 2.69 | – | – | – | > 100
21 | O=C1OCC2=C1C(c1ccccc1)c1cc3c(cc1N2CCO)OCO3 (stereo unspecified) | – | – | – | 10.6 | > 50 | 2.72 | 33.7 | 0.563 | 3.25 | 2.08 | 3.12 | > 50 | – | 17.8
22 | COC(=O)C1(C(=O)OC)CC(=O)c2cc3c(cc2-c2c(cc(OC)c(OC)c2OC)C1)OCO3 | > 211 | > 211 | > 211 | – | – | – | – | – | – | – | – | – | – | –
23 | O=C(O)c1ccccc1/C=N/N=C1c2ccccc2-c2ccccc21 | – | – | – | – | > 100 | – | 34.7 | – | > 100 | – | – | > 100 | – | > 100
24 | CC(=O)c1ccc(O)c(CN(C2CCCCC2)C2CCCCC2)c1O | – | – | – | – | > 100 | – | > 100 | – | > 100 | – | – | > 100 | – | > 100
25 | COC(=O)C1(O)CC(=O)CCC1c1ccc(OC)cc1 (stereo unspecified) | > 100 | > 100 | – | – | – | – | – | – | – | – | – | – | > 100 | –
